Experimental findings from ChEMBL document CHEMBL1201862, “PubChem BioAssay data set” (2004) are described below.

Some test systems named below: 786-0; HCC 2998; IGROV-1; K562; M14; NCI-H460; NCI-H522; SF-268; SK-MEL-2; SK-MEL-5; SK-OV-3; SN12C; SNB-78; SW-620; UACC-257; HCT-116; HOP-92; Hs-578T; MDA-N; SR.
What all share (experiment): growth of human tumour cells (NCI), 48 h

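Briefly, cells in 96-well plates were exposed to five compound concentrations for 48 h, and endpoints were estimated by linear interpolation. The concentration for 50% growth inhibition is given as GI50.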 Activity calls are given as the source filed them. Cut-off read from the data, not from the text of the source: active = GI50 up to about 1.1 µM and inactive = higher. Bounds are passed on as bounds.

Take `CC1CCCC2(O1)OC1CC(=O)OC1C1=C2C(=O)c2ccccc2C1=O` (stereo not drawn): the GI50 in the assay with 786-0 was 2.14 µM (inactive); with HCC 2998, 2.37 µM (inactive); with IGROV-1 it was 2.65 µM (inactive); in the assay with K562, 0.63 µM (active); with M14 it was 2.79 µM (inactive); in the assay with NCI-H460 it was 25.9 µM (inactive). The GI50 was 1.6 µM (inactive) in the assay with NCI-H522; 4.02 µM (inactive) in the assay on SF-268; 2.33 µM (inactive) with SK-MEL-2; 2.06 µM (inactive) in the assay with SK-MEL-5; 16.4 µM (inactive) with SK-OV-3; 2.18 µM (inactive) with SN12C. Also, the GI50 was 2.05 µM (inactive) in the assay with SNB-78, 1.67 µM (inactive) in the assay on SW-620 and 1.81 µM (inactive) in the assay on UACC-257.

On to `O=C(O)C12CC3CC(CC(F)(C3)C1)C2`, for which the GI50 in the assay with 786-0, with HCC 2998, in the assay on HCT-116, in the assay with HOP-92, in the assay with IGROV-1 and in the assay on K562 was > 100 µM (inactive) each time. For the same compound, the GI50 in the assay with M14, in the assay on NCI-H460, in the assay on NCI-H522, in the assay on SK-MEL-2, with SK-MEL-5 and with SK-OV-3 was > 100 µM (inactive) each time. For the same compound, the GI50 was 32.2 µM (inactive) in the assay with SNB-78, > 100 µM (inactive) with SW-620 and > 100 µM (inactive) with UACC-257.

For the compound `O=[N+]([O-])C(/C(Cl)=C(\Cl)Br)=C(/Cl)SCc1ccccc1`, the GI50 was 2.08 µM (inactive) with 786-0; 11.2 µM (inactive) with HCC 2998; 2.48 µM (inactive) in the assay on HCT-116; 2.31 µM (inactive) in the assay on HOP-92; 5.11 µM (inactive) in the assay with Hs-578T; 5.9 µM (inactive) in the assay with IGROV-1. Also, the GI50 in the assay on K562 is 1.27 µM (inactive); with M14 it was 2.77 µM (inactive); with MDA-N, 1.85 µM (inactive); in the assay on NCI-H460, 12.8 µM (inactive); in the assay on NCI-H522, 1.89 µM (inactive); in the assay on SF-268, 2.85 µM (inactive). Besides, the GI50 with SK-MEL-2 was 3.8 µM (inactive); in the assay with SK-MEL-5, 2.9 µM (inactive); with SK-OV-3, 19.6 µM (inactive); in the assay on SN12C, 3.31 µM (inactive); in the assay on SR, 1.44 µM (inactive); with SW-620, 2.03 µM (inactive). Further, the GI50 in the assay with UACC-257 is 6.21 µM (inactive).

For `Nc1ccc2c(=O)cc(-c3ccc(Br)s3)[nH]c2n1`, the GI50 in the assay with 786-0 was 4.02 µM (inactive); in the assay with HCC 2998 it was 3.39 µM (inactive); in the assay with HCT-116, 3.02 µM (inactive); in the assay with HOP-92, 12.7 µM (inactive); with Hs-578T, 2.36 µM (inactive); in the assay on IGROV-1, 3.85 µM (inactive). In addition, the GI50 was 0.522 µM (active) in the assay with K562; 3.12 µM (inactive) with M14; 0.323 µM (active) in the assay on MDA-N; 4.16 µM (inactive) with NCI-H460; 1.42 µM (inactive) in the assay on NCI-H522; 6.22 µM (inactive) with SF-268. Moreover, the GI50 with SK-MEL-2 is > 100 µM (inactive); in the assay on SK-MEL-5 it was 1.35 µM (inactive); in the assay with SK-OV-3 it was 3.94 µM (inactive); in the assay on SN12C, 6.55 µM (inactive); in the assay on SR, 0.267 µM (active); in the assay on SW-620, 1.12 µM (active). Moreover, the GI50 with UACC-257 is > 27.7 µM (inactive).

On to `O=C(NNC(=S)Nc1cccc(Cl)c1)c1cc(-c2ccccc2)nc2ccccc12`, for which the GI50 in the assay on 786-0 was 17.1 µM (inactive); in the assay on HCC 2998, 12.6 µM (inactive); in the assay on HCT-116, 15.4 µM (inactive); in the assay on HOP-92 it was 12.5 µM (inactive); in the assay with Hs-578T it was 19.6 µM (inactive); in the assay on IGROV-1, 18.7 µM (inactive). Further, the GI50 was 20.7 µM (inactive) with K562; 17.5 µM (inactive) in the assay with M14; 18.3 µM (inactive) in the assay with MDA-N; 18.6 µM (inactive) in the assay with NCI-H460; 14.5 µM (inactive) with NCI-H522; 17 µM (inactive) with SF-268. Also, the GI50 with SK-MEL-2 is 13.8 µM (inactive); in the assay with SK-MEL-5, 16.9 µM (inactive); in the assay with SK-OV-3, 19.9 µM (inactive); in the assay with SN12C, 14.7 µM (inactive); in the assay with SR, 23.9 µM (inactive); in the assay on SW-620, 14.6 µM (inactive). In addition, the GI50 in the assay with UACC-257 is 15.7 µM (inactive).

Regarding `S=c1ssc2c3ssc(=S)c3n(Cc3ccccc3)c12`, the GI50 was 37.3 µM (inactive) in the assay on 786-0; > 100 µM (inactive) in the assay on HCC 2998; > 100 µM (inactive) in the assay with HCT-116; > 100 µM (inactive) with HOP-92; > 100 µM (inactive) in the assay with Hs-578T; > 100 µM (inactive) in the assay on IGROV-1. The GI50 in the assay with K562 is 40.9 µM (inactive); in the assay on M14, > 100 µM (inactive); with MDA-N it was > 100 µM (inactive); in the assay with NCI-H460 it was > 100 µM (inactive); with NCI-H522 it was 83.2 µM (inactive); in the assay with SF-268, 59.2 µM (inactive). The GI50 is > 100 µM (inactive) in the assay with SK-MEL-2; > 100 µM (inactive) with SK-MEL-5; > 100 µM (inactive) in the assay on SK-OV-3; > 100 µM (inactive) in the assay with SN12C; 0.67 µM (active) in the assay on SR; > 100 µM (inactive) with SW-620. Besides, the GI50 in the assay on UACC-257 is > 100 µM (inactive).

On to `O=C(CCCC1Cc2ccccc2C1=O)c1ccccc1` (stereo not drawn), for which the GI50 is > 100 µM (inactive) in the assay on 786-0; > 100 µM (inactive) with HCC 2998; 63.8 µM (inactive) with HCT-116; 62.8 µM (inactive) with HOP-92; > 100 µM (inactive) in the assay on Hs-578T; > 100 µM (inactive) with IGROV-1. Further, the GI50 in the assay with K562 was 39.8 µM (inactive); in the assay with M14, 99.8 µM (inactive); in the assay on MDA-N it was 66.2 µM (inactive); in the assay with NCI-H460, 89.9 µM (inactive); in the assay on NCI-H522, 52.7 µM (inactive); with SF-268 it was > 100 µM (inactive). For the same compound, the GI50 with SK-MEL-2 was > 100 µM (inactive); in the assay on SK-MEL-5 it was 35.6 µM (inactive); in the assay with SK-OV-3 it was > 100 µM (inactive); with SN12C, 54.7 µM (inactive); in the assay with SR it was 41.2 µM (inactive); in the assay with SW-620, > 100 µM (inactive). Moreover, in the assay with UACC-257, the GI50 was 46.2 µM (inactive).

For the compound `Cc1cc(NS(=O)(=O)c2ccc(NC(=O)c3ccc4nc5ccccc5c(Nc5ccc(S(N)(=O)=O)cc5)c4c3)cc2)no1`, the GI50 in the assay with 786-0 was 17.1 µM (inactive); in the assay with HCC 2998, 38.9 µM (inactive); in the assay with HCT-116, 24.8 µM (inactive); with HOP-92, 24.6 µM (inactive); with Hs-578T, 31.9 µM (inactive); in the assay with IGROV-1, 33.4 µM (inactive). The GI50 in the assay with K562 is 19.8 µM (inactive); in the assay on M14 it was 30 µM (inactive); in the assay with MDA-N it was 25.6 µM (inactive); in the assay with NCI-H460, 20.7 µM (inactive); in the assay with NCI-H522 it was 17.8 µM (inactive); in the assay on SF-268 it was 30.5 µM (inactive). Besides, the GI50 was 23.9 µM (inactive) in the assay with SK-MEL-2; 25.1 µM (inactive) in the assay on SK-MEL-5; > 100 µM (inactive) in the assay with SK-OV-3; 27.2 µM (inactive) with SN12C; 25.1 µM (inactive) in the assay on SR; 28.1 µM (inactive) in the assay with SW-620. In addition, the GI50 in the assay with UACC-257 was 22 µM (inactive).

Regarding `CC(=O)Nc1ccc(Nc2cc(=O)n(C)c(=O)[nH]2)cc1`, the GI50 in the assay with 786-0, with HCC 2998, with HCT-116, in the assay with HOP-92, in the assay on Hs-578T and with IGROV-1 was > 100 µM (inactive) in each case. Besides, the GI50 in the assay on K562, in the assay with M14, in the assay with MDA-N, in the assay on NCI-H460, in the assay on NCI-H522 and in the assay with SF-268 was > 100 µM (inactive) in each case. Moreover, the GI50 in the assay on SK-MEL-2, in the assay on SK-MEL-5, with SK-OV-3, with SN12C, with SR and with SW-620 was > 100 µM (inactive) in each case. Besides, in the assay on UACC-257, the GI50 was > 100 µM (inactive).

In the case of `Cc1ccc(C(=O)N2c3ccccc3N(C)n3cccc3C2CC(=O)O)cc1` (stereo not drawn), the GI50 in the assay with 786-0, in the assay with HCC 2998, with HOP-92, in the assay on IGROV-1, with K562 and in the assay on M14 was > 100 µM (inactive) in each case. The GI50 with NCI-H460, in the assay with NCI-H522, in the assay with SF-268, in the assay on SK-MEL-2, in the assay on SK-MEL-5 and with SN12C was > 100 µM (inactive) in each case. The GI50 with SNB-78, in the assay on SW-620 and in the assay on UACC-257 was > 100 µM (inactive) throughout.

Regarding `CCN(CC)CCCC(C)Nc1c2ccc(Cl)cc2nc2cc(Cl)ccc12` (stereo not drawn), the GI50 is 2.16 µM (inactive) in the assay on HCC 2998; 2.27 µM (inactive) in the assay on HCT-116; 2.77 µM (inactive) with HOP-92; 4.76 µM (inactive) in the assay on IGROV-1; 2.21 µM (inactive) in the assay with K562; 3.31 µM (inactive) in the assay with NCI-H460. The GI50 in the assay on NCI-H522 was 5.07 µM (inactive); in the assay on SF-268, 4.9 µM (inactive); in the assay on SK-MEL-2, 15.7 µM (inactive); in the assay on SK-MEL-5, 4.76 µM (inactive); in the assay on SK-OV-3, 5.6 µM (inactive); in the assay on SN12C it was 4.66 µM (inactive). Also, the GI50 is 9.82 µM (inactive) in the assay on SNB-78, 3.24 µM (inactive) in the assay on SW-620 and 4.6 µM (inactive) in the assay on UACC-257.
